Data from article PMC4973094, “Anti-cholinesterases and memory improving effects of Vietnamese Xylia xylocarpa” (Chemistry Central Journal, 2016).
Where a name gives a salt, the structure may show the parent alone. Read-outs that look alike come from different tables or passages of the source.

Columns and labels:
[1] = biological target: T1, Acetylcholinesterase (AChE) (EC 3.1.1.7) (Homo sapiens, UniProt P22303); experiment: AChE inhibition assay (modified Ellman's method); type: biochemical
T1 construct: purchased Sigma-Aldrich Pte Ltd (Nucleos, Singapore)
T1 sequence (P22303 32-614): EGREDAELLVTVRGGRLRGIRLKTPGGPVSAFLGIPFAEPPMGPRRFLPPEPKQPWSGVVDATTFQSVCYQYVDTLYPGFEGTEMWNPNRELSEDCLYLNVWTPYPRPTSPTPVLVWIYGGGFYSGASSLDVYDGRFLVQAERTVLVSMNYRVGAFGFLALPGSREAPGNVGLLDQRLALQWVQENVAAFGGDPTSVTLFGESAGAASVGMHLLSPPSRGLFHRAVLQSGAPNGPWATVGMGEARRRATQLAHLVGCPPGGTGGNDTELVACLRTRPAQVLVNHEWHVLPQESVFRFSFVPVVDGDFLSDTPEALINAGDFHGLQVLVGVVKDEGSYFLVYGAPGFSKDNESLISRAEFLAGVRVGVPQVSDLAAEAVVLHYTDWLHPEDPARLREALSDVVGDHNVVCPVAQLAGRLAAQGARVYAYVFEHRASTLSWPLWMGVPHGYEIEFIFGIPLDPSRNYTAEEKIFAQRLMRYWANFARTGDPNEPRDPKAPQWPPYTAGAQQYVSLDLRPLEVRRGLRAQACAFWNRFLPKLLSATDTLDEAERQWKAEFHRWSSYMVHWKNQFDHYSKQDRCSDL
Method: (§1) Male Swiss mice (age, 8 weeks; weight, 25–27 g) were purchased from Military Medical University (Hanoi, Vietnam) and housed in a regulated environment (21 ± 2 °C, 12 h light/dark cycle, light period starting at 7 AM) with free access to food and water. Acetylcholinesterase (AChE) (EC 3.1.1.7), butyrylcholinesterase (BChE) (EC 3.1.1.8) and scopolamine hydrobromide (>98 %) were obtained from Sigma-Aldrich Pte Ltd (Nucleos, Singapore). […] Other chemicals were of the highest grade available.
(§2) The inhibitory activities of the ChEs were measured using a modified Ellman’s method. Acetylthiocholine and butyrylthiocholine were used as substrates to examine the inhibitory effect of sample on the AChE and BChE action, respectively. The reaction mixture contained: 140 μL of sodium phosphate buffer (pH 8.0); 20 μL of tested sample solution; and 20 µL of either AChE or BChE solution (5 units/mL), which were mixed and incubated at room temperature for 15 min. The reactions were initiated by the addition of 10 µL of dithiobisnitrobenzoate (DTNB) and 10 μL of either acetylthiocholine or butyrylthiocholine, respectively. The hydrolysis of AChE or BChE was monitored at 412 nm based on the formation of yellow 5-thio-2-nitrobenzoate anion from the reaction of DTNB with thiocholine, which was released by enzymatic hydrolysis of either AChE or BChE. […] The reaction was performed in triplicate and recorded in 96-well microplates using a microplate reader (VersaMax ELISA, USA). Percent inhibition was calculated from (1–S/E) × 100, where E and S were the enzyme activities […] the tested sample, respectively.

[2] = biological target: T2, butyrylcholinesterase (BChE) (EC 3.1.1.8) (Homo sapiens, UniProt P06276); experiment: BChE inhibition assay (modified Ellman's method); type: biochemical; conditions: average of 3 replicates ± SD; substrate butyrylthiocholine, pH 8.0
T2 construct: purchased Sigma-Aldrich Pte Ltd (Nucleos, Singapore)
T2 sequence (P06276 29-602, species assumed): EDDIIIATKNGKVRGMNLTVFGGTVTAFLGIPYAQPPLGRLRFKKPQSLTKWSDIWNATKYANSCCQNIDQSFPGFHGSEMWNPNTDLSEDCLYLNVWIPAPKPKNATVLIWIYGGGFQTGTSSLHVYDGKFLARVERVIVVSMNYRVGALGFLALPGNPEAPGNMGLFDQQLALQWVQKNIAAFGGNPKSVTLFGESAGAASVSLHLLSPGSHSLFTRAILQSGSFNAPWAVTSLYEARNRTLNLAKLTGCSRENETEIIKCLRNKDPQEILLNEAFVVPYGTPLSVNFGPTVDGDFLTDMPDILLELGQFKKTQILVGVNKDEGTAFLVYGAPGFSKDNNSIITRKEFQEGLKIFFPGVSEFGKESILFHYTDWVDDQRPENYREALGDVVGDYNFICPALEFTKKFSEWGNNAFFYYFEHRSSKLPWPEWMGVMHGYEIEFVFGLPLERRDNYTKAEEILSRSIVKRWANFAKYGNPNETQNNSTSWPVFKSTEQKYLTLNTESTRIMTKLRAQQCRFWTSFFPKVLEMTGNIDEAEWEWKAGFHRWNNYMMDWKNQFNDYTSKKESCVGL
Method: as §1, §2

[3] = tested on: scopolamine-induced memory deficit in mice; experiment: Y-maze test, scopolamine-induced memory impairment; type: in vivo, male Swiss mice; conditions: scopolamine 1.5 mg/kg i.p. alone; versus vehicle-treated control group, P < 0.001
[4] = tested on: scopolamine-induced memory deficit in mice; experiment: Morris water maze test, scopolamine-induced memory dysfunction; type: in vivo, male Swiss mice; conditions: scopolamine 1.5 mg/kg i.p. alone, versus vehicle-treated controls
[5] = tested on: scopolamine-induced memory deficit in mice; experiment: Object recognition test, scopolamine-induced recognition impairment; type: in vivo, male Swiss mice; conditions: scopolamine 1.5 mg/kg i.p. alone
[6] = days 3 to 7, P < 0.01 and P < 0.001

SMILES	IC50 [1] [µM]	IC50 [2] [µM]	other results
CC1(C)OC(=O)C23CCC1C2CCC1(C)C3CCC2C3(C)CCC(O)C(C)(C)C3CCC21C (stereo not drawn) [Compound 1, (3β)-hopan-3-ol-28,22-olide]	79.5 ± 1.1	> 100	–
C=C(C)[C@@H]1CC[C@]2(C)CC[C@]3(C)[C@H](CC[C@@H]4[C@@]5(C)CC[C@H](O)C(C)(C)[C@@H]5CC[C@]43C)[C@@H]12 [Compound 2, lupeol]	75.7 ± 3.1	> 100	–
C=C(C)[C@@H]1CC[C@]2(O)CC[C@]3(C)C(CCC4[C@@]5(C)CC[C@H](O)C(C)(C)C5CC[C@]43C)C12 (stereo partly drawn) [Compound 3, 28-norlup-20(29)-ene-3β,17β-diol]	> 100	> 100	–
C=C(C)[C@@H]1CC[C@]2(CO)CC[C@]3(C)[C@H](CC[C@@H]4[C@@]5(C)CC[C@H](O)C(C)(C)[C@@H]5CC[C@]43C)[C@@H]12 [Compound 4, betulin]	93.4 ± 2.2	–	–
C=C(C)[C@@H]1CC[C@]2(OO)CC[C@]3(C)C(CCC4[C@@]5(C)CC[C@H](O)C(C)(C)C5CC[C@]43C)C12 (stereo partly drawn) [Compound 5, 28-norlup-20(29)-ene-3β-hydroxy-17β-hydroperoxide]	83.9 ± 0.6	> 100	–
C=C(C)[C@@H]1CC[C@]2(C(=O)O)CC[C@]3(C)[C@H](CC[C@@H]4[C@@]5(C)CC[C@H](O)C(C)(C)[C@@H]5CC[C@]43C)[C@@H]12 [Compound 7, betulinic acid]	62 ± 2.2	–	–
C=C(C)[C@@H]1CC[C@]2(C(=O)O)CC[C@]3(C)C(CCC4[C@@]5(C)CCC(=O)C(C)(C)C5CC[C@]43C)C12 (some centres unmarked) [Compound 8, betulonic acid]	–	> 100	IC50 ([1]; read-out: IC50 AChE, average of 3 replicates ± SD, substrate acetylthiocholine, pH 8.0): 94.6 ± 1.5 µM
CC1(C)CC[C@]23CC[C@]4(C)C(CCC5[C@@]6(C)CC[C@H](O)C(C)(C)C6CC[C@]54C)C2[C@H]1OC3=O (stereo partly drawn) [Compound 10, 3β-hydroxy-18α-olean-28,19β-olide]	> 100	–	–
CC1(C)CC[C@]23CC[C@]4(C)C(CCC5[C@@]6(C)CC[C@H](OC=O)C(C)(C)C6CC[C@]54C)C2[C@H]1OC3=O (stereo partly drawn) [Compound 11, 3β-formyloxy-l8α-oleanano-28,19β-lactone]	86.5 ± 0.6	> 100	–
Cc1cc(O)c2c(c1)C(=O)c1cccc(O)c1C2=O [Compound 12, chrysophanol]	77.3 ± 0.8	> 100	–
COC1=CC(=O)C=C(OC)C1=O [Compound 13, 2,6-dimethoxyl-p-benzoquinone]	54.4 ± 3.4	42.7 ± 7.6	–
COc1cc(/C=C/C(=O)O)ccc1O [Compound 14, ferulic acid]	> 100	> 100	–
COC(=O)/C=C/c1ccc(O)c(OC)c1 [Compound 15, methyl ferulate]	> 100	–	–
COC(=O)C(Cc1ccc(O)cc1)C(=O)OC [Compound 16, methyl 3-(4-hydroxyphenyl)-2-methoxycarbonylpropionate]	> 100	> 100	–
O=C(O)c1ccc(O)c(O)c1 [Compound 17, protocatechuic acid]	> 100	–	–
COc1cc(C(=O)O)ccc1O [Compound 18, vanillic acid]	> 100	> 100	–
COc1cc(C=O)ccc1O [Compound 19, vanillin]	> 100	–	–
COC(=O)c1cc(O)c(O)c(O)c1 [Compound 20, methyl gallate]	> 100	–	–
COc1cc(C(=O)O)cc(OC)c1O [Compound 21, syringic acid]	> 100	–	–
CN1[C@@H]2C[C@@H](OC(=O)[C@H](CO)c3ccccc3)C[C@H]1[C@@H]1O[C@@H]12 [scopolamine, scopolamine hydrobromide]	–	–	Spontaneous alternation (%) in Y-maze [3]: significantly lower; Time in the target quadrant, probe trial day 8, Morris water maze ([4]; P < 0.05): significantly reduced; Escape latencies, training trials, Morris water maze [4, 6]: longer; Swimming distances, training trials, Morris water maze [4, 6]: longer; Time exploring new versus familiar object, test phase, object recognition test [5]: no total time difference between familiar and new objects
